The values that follow come from patent publication US20070049593A1 (priority 2004, published 2007).

For orientation: IC50 means the midpoint of a concentration-inhibition curve. The low end stands for inhibition by little substance, the high end for a need for much substance.

For this assay, the target named is T1, HCV polymerase (Hepatitis C virus genotype 1b, UniProt P26663).
T1 construct: a region encoding NS5B (J Virol 1991 March, 65(3), 1105-13, 544 amino acids after deletion of 47 amino acids on the C-terminal); 6xHis (C); made in house; host or cells: Escherichia coli
Kind of assay: biochemical. On the set-up: species or system HCV BK strain. In outline:
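Recombinant HCV BK-strain NS5B (C-terminal 47 aa deleted, His6-tagged, E. coli), 0.5 μg/ml, run with 5 μg/ml in vitro-transcribed RNA template (polyU/3′X), ATP/GTP/CTP 50 μM, UTP 2 μM plus [3H]UTP, pH 7.5, 25° C, 90 min. TCA-precipitated RNA counted by scintillation; IC50 from activity with vs without compound.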

Structures are written as SMILES. Structures can show the parent of a compound that is named as a salt.

T1 sequence (P26663 2420-2963): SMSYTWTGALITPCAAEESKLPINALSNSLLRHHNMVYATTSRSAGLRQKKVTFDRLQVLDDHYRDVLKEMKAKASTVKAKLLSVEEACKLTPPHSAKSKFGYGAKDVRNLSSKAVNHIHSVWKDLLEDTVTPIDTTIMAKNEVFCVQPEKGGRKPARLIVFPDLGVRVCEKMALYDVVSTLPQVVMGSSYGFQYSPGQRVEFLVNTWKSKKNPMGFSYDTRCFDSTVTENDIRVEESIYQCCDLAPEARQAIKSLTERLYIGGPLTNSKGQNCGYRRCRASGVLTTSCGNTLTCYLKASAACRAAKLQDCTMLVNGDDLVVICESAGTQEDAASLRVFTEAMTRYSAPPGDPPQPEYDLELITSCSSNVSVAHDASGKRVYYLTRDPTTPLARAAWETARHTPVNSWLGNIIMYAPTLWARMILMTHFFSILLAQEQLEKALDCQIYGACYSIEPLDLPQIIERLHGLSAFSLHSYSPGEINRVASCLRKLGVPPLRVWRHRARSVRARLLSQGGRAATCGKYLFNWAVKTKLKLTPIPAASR

`O=C(O)c1ccc2c(C3CCCCC3)c3n(c2c1)CCN(CCN1CC=CCC1)c1ccccc1-3` [Example 1-205, 13-cyclohexyl-5-[2-(3,6-dihydro-2H-pyridin-1-yl)ethyl]-6,7-dihydro-5H-benzo[5,6][1,4]diazepino[7,1-a]indole-10-carboxylic acid] had an IC50 of under 0.1 µM. Turning to `Cc1cccc2c1N(CCN1CCCCC1)CCn1c-2c(C2CCCCC2)c2ccc(C(=O)O)cc21` [Example 1-206, 13-cyclohexyl-4-methyl-5-[2-(piperidin-1-yl)ethyl]-6,7-dihydro-5H-benzo[5,6][1,4]diazepino[7,1-a]indole-10-carboxylic acid dihydrochloride], the IC50 was under 0.1 µM. Compound `COC[C@@H]1CCCN1CCN1CCn2c(c(C3CCCCC3)c3ccc(C(=O)O)cc32)-c2ccccc21` [Example 1-207, 13-cyclohexyl-5-[2-((S)-2-methoxymethylpyrrolidin-1-yl)ethyl]-6,7-dihydro-5H-benzo[5,6][1,4]diazepino[7,1-a]indole-10-carboxylic acid dihydrochloride] gave an IC50 of under 0.1 µM. Next, `CC1CCCN1CCN1CCn2c(c(C3CCCCC3)c3ccc(C(=O)O)cc32)-c2ccccc21` (centres unmarked) [Example 1-208, 13-cyclohexyl-5-[2-(2-methylpyrrolidin-1-yl)ethyl]-6,7-dihydro-5H-benzo[5,6][1,4]diazepino[7,1-a]indole-10-carboxylic acid dihydrochloride]: under 0.1 µM. Next, `CC(C)CN(C)CCN1CCn2c(c(C3CCCCC3)c3ccc(C(=O)O)cc32)-c2ccccc21` [Example 1-209, 13-cyclohexyl-5-[2-(N-isobutyl-N-methylamino)ethyl]-6,7-dihydro-5H-benzo[5,6][1,4]diazepino[7,1-a]indole-10-carboxylic acid dihydrochloride]: under 0.1 µM; `O=C(O)c1ccc2c(C3CCCCC3)c3n(c2c1)CC(=O)N(CC(=O)N1CCOCC1)c1ccccc1-3` [Example 1-210, 13-cyclohexyl-5-[2-(morpholin-4-yl)-2-oxoethyl]-6-oxo-6,7-dihydro-5H-benzo[5,6][1,4]diazepino[7,1-a]indole-10-carboxylic acid]: under 0.1 µM. Next, `O=C(O)c1ccc2c(C3CCCCC3)c3n(c2c1)CCN(CCN1CCCCC1)c1cc(OCc2ccccc2)ccc1-3` [Example 1-211, 3-benzyloxy-13-cyclohexyl-5-[2-(piperidin-1-yl)ethyl]-6,7-dihydro-5H-benzo[5,6][1,4]diazepino[7,1-a]indole-10-carboxylic acid dihydrochloride]: under 0.1 µM; `CC(C)N(C)CCN1CCn2c(c(C3CCCCC3)c3ccc(C(=O)O)cc32)-c2ccccc21` [Example 1-212, 13-cyclohexyl-5-[2-(N-isopropyl-N-methylamino)ethyl]-6,7-dihydro-5H-benzo[5,6][1,4]diazepino[7,1-a]indole-10-carboxylic acid dihydrochloride]: under 0.1 µM; `CC1CCCCN1CCN1CCn2c(c(C3CCCCC3)c3ccc(C(=O)O)cc32)-c2ccc(Cl)cc21` (centres unmarked) [Example 1-213, 3-chloro-13-cyclohexyl-5-[2-(2-methylpiperidin-1-yl)ethyl]-6,7-dihydro-5H-benzo[5,6][1,4]diazepino[7,1-a]indole-10-carboxylic acid dihydrochloride]: under 0.1 µM. `CC1CCCN(CCN2CCn3c(c(C4CCCCC4)c4ccc(C(=O)O)cc43)-c3ccc(Cl)cc32)C1` (centres unmarked) [Example 1-214, 3-chloro-13-cyclohexyl-5-[2-(3-methylpiperidin-1-yl)ethyl]-6,7-dihydro-5H-benzo[5,6][1,4]diazepino[7,1-a]indole-10-carboxylic acid dihydrochloride] had an IC50 of under 0.1 µM.

As for `CC1CCN(CCN2CCn3c(c(C4CCCCC4)c4ccc(C(=O)O)cc43)-c3ccc(Cl)cc32)CC1` [Example 1-215, 3-chloro-13-cyclohexyl-5-[2-(4-methylpiperidin-1-yl)ethyl]-6,7-dihydro-5H-benzo[5,6][1,4]diazepino[7,1-a]indole-10-carboxylic acid dihydrochloride], the IC50 was under 0.1 µM.
